This is an account of results in ChEMBL document CHEMBL1128489, “Novel hexakis(areneisonitrile)technetium(I) complexes as radioligands targeted to the multidrug resistance P-glycoprotein” (J Med Chem, 1995).

Series [1] relates to V79. Briefly: Net accumulation of the [99mTc]Isonitrile complex was measured in 77A cell lines in the presence of Verapamil. Format: functional, cell-based.
Series [2] has as its system V79. Briefly: Verapamil index represents the ratio of net uptake in the presense of verapamil over control in 77A cell lines. Format: functional, cell-based.
A short description of series [3]: Ratio of bioavailability in rat blood and rat brain. Format: functional, organism-based.
Series [4] is described as follows: Ratio of bioavailability in rat heart and rat blood. Format: functional, organism-based.
The nature of series [5]: Ratio of bioavailability in rat adrenal and rat blood. Format: functional, organism-based.
The subject of series [6] is V79. Briefly: Verapamil index represents the ratio of net uptake in the presense of verapamil over control in V79 cell lines. Format: functional, cell-based. The settings on record: Cricetulus griseus.
Series [7] has as its system V79. Briefly: Net accumulation of the [99mTc]Isonitrile complex was measured in V79 cell lines in the presence of Verapamil. Format: functional, cell-based. Conditions: Cricetulus griseus.
The subject of series [8] is Rattus norvegicus. Briefly: Biodistribution values represent the mean % id/organ for paired rats 30 min post intravenous injection complex in Spleen. Format: ADME, organism-based. The settings on record: in vivo, 0.5 h.
Series [9] relates to Rattus norvegicus. Briefly: Biodistribution values represent the mean % id/organ for paired rats 30 min post intravenous injection complex in Adrenal. The settings on record: in vivo, 0.5 h. Format: ADME, organism-based.
Series [10] has as its system Rattus norvegicus. Briefly: Biodistribution values represent the mean % id/organ for paired rats 30 min post intravenous injection complex in Blood. Format: ADME, organism-based. The settings on record: in vivo, 0.5 h.
Series [11] deals with Rattus norvegicus. Briefly: Biodistribution values represent the mean % id/organ for paired rats 30 min post intravenous injection complex in Bone. Conditions: in vivo, 0.5 h. Format: ADME, organism-based, Bone element.
In series [12] the test system is Rattus norvegicus. Briefly: Biodistribution values represent the mean % id/organ for paired rats 30 min post intravenous injection complex in Brain. Format: ADME, organism-based. Conditions: in vivo, 0.5 h.
Series [13] has as its system Rattus norvegicus. Briefly: Biodistribution values represent the mean % id/organ for paired rats 30 min post intravenous injection complex in Fat. Format: ADME, organism-based. The settings on record: in vivo, 0.5 h.
In series [14] the test system is Rattus norvegicus. Briefly: Biodistribution values represent the mean % id/organ for paired rats 30 min post intravenous injection complex in GI. Format: ADME, organism-based. The settings on record: in vivo, 0.5 h.
The test system of series [15] is Rattus norvegicus. Briefly: Biodistribution values represent the mean % id/organ for paired rats 30 min post intravenous injection complex in Heart. Format: ADME, organism-based. Conditions: in vivo, 0.5 h.
The subject of series [16] is Rattus norvegicus. Briefly: Biodistribution values represent the mean % id/organ for paired rats 30 min post intravenous injection complex in Kidney. Format: ADME, organism-based. Conditions: in vivo, 0.5 h.
The test system of series [17] is Rattus norvegicus. Briefly: Biodistribution values represent the mean % id/organ for paired rats 30 min post intravenous injection complex in Skin. Format: ADME, organism-based. The settings on record: in vivo, 0.5 h.
Series [18] relates to Rattus norvegicus. Briefly: Biodistribution values represent the mean % id/organ for paired rats 30 min post intravenous injection complex in Liver. Conditions: in vivo, 0.5 h. Format: ADME, organism-based.
Series [19] relates to Rattus norvegicus. Briefly: Biodistribution values represent the mean % id/organ for paired rats 30 min post intravenous injection complex in Lungs. The settings on record: in vivo, 0.5 h. Format: ADME, organism-based, Lung.
In series [20] the test system is Rattus norvegicus. Briefly: Biodistribution values represent the mean % id/organ for paired rats 30 min post intravenous injection complex in Muscles. Format: ADME, organism-based, Muscle tissue. Conditions: in vivo, 0.5 h.

“Hexakis[2-(3,4,5-Trimethoxyphenyl)ethaneisonitrile]technetium Complex”: the Net accumulation in [1] (Cricetulus griseus) turned out to be 101. For the same substance, the Verapamil index in series [2] (Cricetulus griseus) was found to be 1.07. Besides, the Ratio amounted to 5 in [3], 9 in series [4] and 54 in series [5].
Turning to “Hexakis[2-(3,4-Dimethoxyphenyl)ethaneisonitrile]technetium Complex”, the Net accumulation in series [1] came to 146. In series [2], the Verapamil index came to 3.3. The values for the Ratio in series [3], in series [4] and in series [5] were 23, 0.4 and 4.1, respectively.
“Hexakis[2-(4-Methoxyphenyl)ethaneisonitrile]technetium Complex”: the Net accumulation in series [1] (Cricetulus griseus) came out at 494. Besides, the Verapamil index in series [2] (Cricetulus griseus) came out at 3.09. Besides, the Ratio amounted to 26 in series [3], 3.5 in series [4] and 13 in [5].
With “Hexakis[2-Methoxy-5-nitrobenzeneisonitrile]technetium Complex”, in [6], the Verapamil index worked out at 0.96. In addition, the Net accumulation in [7] came to 58.3. For the same substance, the results for the Ratio in [3], in series [4] and in series [5] were 38, 0.5 and 0.9, respectively.
On to “Hexakis[3,4,5-Trimethoxy-alpha-tolueneisonitrile]technetium Complex”, for which, in series [1] (Cricetulus griseus), the Net accumulation is 57. The Verapamil index in series [2] (Cricetulus griseus) is 0.81. The Ratio was 6.7 in series [3], 5.5 in series [4] and 24 in series [5].
“Hexakis[3,4-(Methylenedioxy)-alpha-tolueneisonitrile]technetium Complex”: the Verapamil index in series [6] came out at 1.11. In addition, in series [7], the Net accumulation worked out at 287. The Ratio came to 36 in series [3], 0.6 in series [4] and 6.9 in [5].
With “Hexakis[3,4-(Methylenedioxy)benzeneisonitrile]technetium Complex”, the Net accumulation in series [1] (Cricetulus griseus) stood at 93.9. The Verapamil index in [2] (Cricetulus griseus) is 1.87. For the same substance, the Ratio in series [3] stood at 9.3; in series [4], 0.4; in [5], 14.
Taken in the same sequence, the figures for “Hexakis[3,4-Dimethoxy-alpha-tolueneisonitrile]technetium Complex” were 362, 1.53, 19, 0.6 and 7.9.
In the case of “Hexakis[3,4-Dimethoxybenzeneisonitrile]technetium Complex”, the Net accumulation in series [1] (Cricetulus griseus) was found to be 397. In addition, the Verapamil index in series [2] (Cricetulus griseus) is 3.52. Moreover, the Ratio in series [3] is 26; in series [4], 0.7; in series [5], 7.3.
For “Hexakis[3,5-Dimethoxy-alpha-tolueneisonitrile]technetium Complex”, in that order: 315, 2.19, 28, 0.4 and 3.1.
In the case of “Hexakis[3,5-Dimethoxybenzeneisonitrile]technetium Complex”, the Net accumulation in series [1] (Cricetulus griseus) was 15.3. Besides, the Verapamil index in series [2] (Cricetulus griseus) worked out at 1.84. In addition, the figures for the Ratio in [3], in series [4] and in series [5] were 7.5, 1 and 1.7, respectively.
Regarding “Hexakis[3-(hydroxymethyl)benzeneisonitrile]technetium Complex”, the Verapamil index in series [6] worked out at 2.38. For the same substance, the Net accumulation in [7] was 257. For the same substance, the Ratio in series [3] amounted to 27; in series [4] it was 0.7; in series [5], 6.2.
On to “Hexakis[3-Acetamidobenzeneisonitrile]technetium Complex”, for which, in series [1] (Cricetulus griseus), the Net accumulation is 147. Also, the Verapamil index in series [2] (Cricetulus griseus) was found to be 0.77. Besides, the results for the Ratio in [3], in series [4] and in series [5] were 15, 0.7 and 8.8, respectively.
“Hexakis[3-Nitrobenzeneisonitrile]technetium Complex [listing 1 of 2 here]”: the ID/organ in series [8] was determined as 0.28%; in series [9], 0.01%; in [10], 9.44%; in series [11], 5.74%; in series [12] it was 0.03%; in series [13], 0.51%. The ID/organ is listed as 42.9% in series [14]; 0.17% in series [15]; 5.21% in series [16]; 5.3% in series [17]; 13.8% in series [18]; 0.37% in [19]. Moreover, the ID/organ in [20] is 7.61%.
On to “Hexakis[3-Nitrobenzeneisonitrile]technetium Complex [listing 2 of 2 here]”, for which the Verapamil index in [6] is 0.99. In addition, the Net accumulation in series [7] came out at 14. Besides, the Ratio in series [3] turned out to be 31; in [4], 0.4; in series [5], 0.6.
Turning to “Hexakis[4-Acetylbenzeneisonitrile]technetium Complex [listing 1 of 2 here]”, the ID/organ in series [8] was determined as 2.28%; in series [9], 0.06%; in series [10] it was 1.13%; in series [11], 4.27%; in [12] it was 0.01%; in series [13], 0.07%. The ID/organ came to 3.15% in series [14]; 0.03% in series [15]; 0.66% in series [16]; 0.7% in [17]; 92.7% in [18]; 1.73% in series [19]. In addition, the ID/organ in series [20] came to 0.68%.
Regarding “Hexakis[4-Acetylbenzeneisonitrile]technetium Complex [listing 2 of 2 here]”, the Net accumulation in [1] (Cricetulus griseus) was 826. Further, the Verapamil index in series [2] (Cricetulus griseus) worked out at 1.73. Also, the Ratio is 17 in [3], 0.6 in [4] and 22 in [5].
Take “Hexakis[4-Cyanobenzeneisonitrile]technetium Complex [listing 1 of 2 here]”: the ID/organ is 2.47% in series [8]; 0.03% in series [9]; 9.89% in series [10]; 4.9% in series [11]; 0.03% in series [12]; 0.37% in [13]. The ID/organ is listed as 2.99% in series [14]; 0.13% in series [15]; 1.23% in series [16]; 1.23% in series [17]; 75.7% in series [18]; 2.2% in series [19]. Also, the ID/organ in series [20] stood at 3.84%.
Regarding “Hexakis[4-Cyanobenzeneisonitrile]technetium Complex [listing 2 of 2 here]”, the Net accumulation in series [1] (Cricetulus griseus) amounted to 161. For the same substance, in [2] (Cricetulus griseus), the Verapamil index turned out to be 1.61. Also, the Ratio in [3] was 31; in series [4] it was 0.3; in series [5] it was 1.2.
In the case of “Hexakis[4-Methoxy-alpha-tolueneisonitrile]technetium Complex [listing 1 of 2 here]”, the ID/organ in series [8] was found to be 2.45%; in [9] it was 0.03%; in series [10] it was 4.56%; in [11], 2.73%; in series [12] it was 0.02%; in series [13], 0.24%. For the same substance, the ID/organ in series [14] is recorded as 3.31%; in series [15], 0.08%; in series [16], 0.45%; in series [17], 0.58%; in [18], 85.6%; in series [19], 1.31%. In addition, the ID/organ in series [20] is 1.92%.
“Hexakis[4-Methoxy-alpha-tolueneisonitrile]technetium Complex [listing 2 of 2 here]”: the Net accumulation in series [1] (Cricetulus griseus) was 359. In addition, the Verapamil index in [2] (Cricetulus griseus) amounted to 2.6. Moreover, the values for the Ratio in series [3], in [4] and in [5] were 30, 0.3 and 2.5, respectively.
As for “Hexakis[4-Nitrobenzeneisonitrile]technetium Complex [listing 1 of 2 here]”, the ID/organ in series [8] was 1.12%; in [9], 0.03%; in series [10], 19.2%; in series [11], 8.79%; in series [12] it was 0.06%; in series [13], 1.26%. Further, the ID/organ in series [14] amounted to 10.1%; in [15], 0.33%; in series [16] it was 4.84%; in series [17], 3.65%; in series [18], 38%; in [19] it was 1.06%. This substance showed an ID/organ in series [20] of 6.87%.
With “Hexakis[4-Nitrobenzeneisonitrile]technetium Complex [listing 2 of 2 here]”, in series [1] (Cricetulus griseus), the Net accumulation was 29.1. Further, in [2] (Cricetulus griseus), the Verapamil index was 1.15. For the same substance, the Ratio in series [3] was 39; in series [4], 0.3; in series [5] it was 0.6.
Turning to “Hexakis[5-Methoxy-2-methyl-4-nitrobenzeneisonitrile]technetium Complex”, the ID/organ in [8] is listed as 3.05%; in series [9], 0.03%; in [10], 6.88%; in series [11], 5.59%; in series [12] it was 0.03%; in [13], 0.32%. For the same substance, the ID/organ is reported as 3.96% in series [14]; 0.14% in series [15]; 1.13% in series [16]; 0.77% in series [17]; 71.9% in series [18]; 0.72% in [19]. This substance also yielded an ID/organ in [20] of 1.28%.
